Experimental data taken from patent EP4782453A1 (Beyang Therapeutics Co., Ltd., priority 2023, dated 2025).
Read-outs that look alike come from different tables or passages of the source.

Biological target: T1, Menin-MLL (Homo sapiens, UniProt O00255)
T1 construct: His-Menin (M1-L615 end); purchased BIORTUS BP9210
T1 sequence (O00255 1-615 isoform O00255-1): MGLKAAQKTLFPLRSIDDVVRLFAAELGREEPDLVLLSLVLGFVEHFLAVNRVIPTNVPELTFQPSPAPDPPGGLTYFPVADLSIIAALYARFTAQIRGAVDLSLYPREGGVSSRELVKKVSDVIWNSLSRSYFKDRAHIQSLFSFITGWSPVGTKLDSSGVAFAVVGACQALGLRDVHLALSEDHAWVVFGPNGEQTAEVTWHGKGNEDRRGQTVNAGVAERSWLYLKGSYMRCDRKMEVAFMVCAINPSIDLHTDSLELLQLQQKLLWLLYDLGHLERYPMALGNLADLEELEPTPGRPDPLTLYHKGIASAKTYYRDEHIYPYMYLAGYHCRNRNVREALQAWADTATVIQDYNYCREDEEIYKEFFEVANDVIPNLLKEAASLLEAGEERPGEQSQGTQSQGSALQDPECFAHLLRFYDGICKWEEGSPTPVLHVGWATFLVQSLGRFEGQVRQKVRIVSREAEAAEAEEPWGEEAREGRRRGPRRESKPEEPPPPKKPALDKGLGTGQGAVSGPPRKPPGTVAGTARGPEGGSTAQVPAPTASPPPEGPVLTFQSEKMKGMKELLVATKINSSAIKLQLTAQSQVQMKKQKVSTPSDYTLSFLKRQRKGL
Assay: Inhibitory activity against Menin-MLL binding (fluorescence polarization)
Settings: 150 nM His-Menin, 15 nM FITC-MLL, 25°C for 60 min
Summary of the method: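 His-Menin (M1-L615, 150 nM) preincubated with compound 15 min at 25 °C in HEPES pH 7.5, 50 mM NaCl, 1 mM DTT, 0.01% BSA, then 15 nM FITC-MLL4-43 peptide added for 60 min at 25 °C. Fluorescence polarization read; IC50 from 4-parameter logistic fit, duplicates.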

[1] = fluorescence polarization, read-out: Menin-MLL IC50

IC50 [1]	Structure (SMILES)	IC50 (Menin-MLL IC50, fluorescence polarization)
10 nM	Cc1nc(F)c2c(-c3ccc(F)cc3C(=O)N3CCOC[C@H]3C)cc(C3CN(C(C)C4CCOCC4)C3)cn12 (stereo partly drawn) [Example 238, (3R)-4-[5-fluoro-2-(1-fluoro-3-methyl-6-{1-[1-(oxacyclohexan-4-yl)ethyl]azacyclobutan-3-yl}imidazo[1,5-a]pyridin-8-yl)benzoyl]-3-methylmorpholine]	–
80 nM	Cc1nc(F)c2c(-c3ccc(F)cc3C(=O)N3CCOC[C@H]3C)cc(C3CN([C@H](C)C4CCOCC4)C3)cn12 [Example 238-1, (3R)-4-[5-fluoro-2-(1-fluoro-3-methyl-6-{1-[(1R)-1-(oxacyclohexan-4-yl)ethyl]azacyclobutan-3-yl}imidazo[1,5-a]pyridin-8-yl)benzoyl]-3-methylmorpholine]	–
199 nM	Cc1nc(F)c2c(-c3ccc(F)cc3C(=O)N3CCOC[C@H]3C)cc(C3CN(CC4(O)CCOCC4)C3)cn12 [Example 239]	–
53.5 nM	Cc1nc(F)c2c(-c3ccc(F)cc3C(=O)N3CCOC[C@H]3C)cc(C3CN(CC4CCOC4)C3)cn12 (stereo partly shown) [Example 240]	–
31.5 nM	COCC(=O)N1CCC(CN2CC(c3cc(-c4ccc(F)cc4C(=O)N4CCOC[C@H]4C)c4c(F)nc(C)n4c3)C2)CC1 [Example 241, 1-(4-{[3-(1-fluoro-8-{4-fluoro-2-[(3R)-3-methylmorpholin-4-carbonyl]phenyl}-3-methylimidazo[1,5-a]pyridin-6-yl)azacyclobutan-1-yl]methyl}piperidin-1-yl)-2-methoxyethan-1-one]	–
58 nM	Cc1nc(F)c2c(-c3ccc(F)cc3C(=O)N3CCOC[C@H]3C)cc(C3CN([C@@H](CC[C@@H]4CNCCO4)C(C)C)C3)cn12 [Example 245-2, (3R)-4-[5-fluoro-2-(1-fluoro-3-methyl-6-{1-[(3S)-4-methyl-1-[(2R)-morpholin-2-yl]pentan-3-yl]azacyclobutan-3-yl}imidazo[1,5-a]pyridin-8yl)benzoyl]-3-methylmorpholine]	–
73 nM	Cc1nc(F)c2c(-c3ccc(F)cc3C(=O)N3CCOC[C@H]3C)cc(C3CN(CC4CCN(C(=O)N(C)C)CC4)C3)cn12 [Example 246]	–
106 nM	CCS(=O)(=O)N1CCC(CN2CC(c3cc(-c4ccc(F)cc4C(=O)N4CCOC[C@H]4C)c4c(F)nc(C)n4c3)C2)CC1 [Example 251]	–
109 nM	Cc1nc(F)c2c(-c3ccc(F)cc3C(=O)N3CCOC[C@H]3C)cc(C3CN(CC4CCN(S(=O)(=O)C5CC5)CC4)C3)cn12 [Example 252]	–
39 nM	Cc1nc(F)c2c(-c3ccc(F)cc3C(=O)N3CCOC[C@H]3C)cc(C3CN(C[C@H]4CC[C@H](n5cncn5)CC4)C3)cn12 [Example 253]	–
48 nM	Cc1nc(F)c2c(-c3ccc(F)cc3C(=O)N3CCOC[C@H]3C)cc(C3CN(CC4CCN(C(=O)C5(C#N)CC5)CC4)C3)cn12 [Example 254]	–
86 nM	COCC(C1CCOCC1)N1CC(c2cc(-c3ccc(F)cc3C(=O)N3CCOC[C@H]3C)c3c(F)nc(C)n3c2)C1 (stereo partly drawn) [Example 255, (3R)-4-[5-fluoro-2-(1-fluoro-6-{1-[2-methoxy-1-(oxacyclohexan-4-yl)ethyl]azacyclobutan-3-yl}-3-methylimidazo[1,5-a]pyridin-8-yl)benzoyl]-3-methylmorpholine]	–
189 nM	COCC(C1CCOCC1)N1CC(c2cc(-c3ccc(F)cc3C(=O)N3CCOC[C@H]3C)c3cnc(C)n3c2)C1 (stereo partly shown) [Example 256]	–
131 nM	CC(=O)N1CCC([C@@H](C)N2CC(c3cc(-c4ccc(F)cc4C(=O)N4CCOC[C@H]4C)c4c(F)nc(C)n4c3)C2)CC1 [Example 257-1, 1-{4-[(1R)-1-[3-(1-fluoro-8-{4-fluoro-2-[(3R)-3-methylmorpholin-4-carbonyl]phenyl}-3-methylimidazo[1,5-a]pyridin-6-yl)azacyclobutan-1-yl]ethyl]piperidin-1-yl}ethan-1-one]	–
257 nM	COC1(C(=O)N2CCC(CN3CC(c4cc(-c5ccc(F)cc5C(=O)N5CCOC[C@H]5C)c5c(F)nc(C)n5c4)C3)CC2)CC1 [Example 262]	–
74 nM	Cc1nc(F)c2c(-c3ccc(F)cc3C(=O)N3CCOCC3C)cc(C3CN(C(C)C4CCN(C(=O)CC#N)CC4)C3)cn12 (stereo not shown) [Example 263-1]	–
116 nM	CNC(=O)N1CCC([C@@H](C)N2CC(c3cc(-c4ccc(F)cc4C(=O)N4CCOC[C@H]4C)c4c(F)nc(C)n4c3)C2)CC1 [Example 264-1]	–

IC50 [1]	Structure (SMILES)	IC50 (Menin-MLL IC50, fluorescence polarization)
24 nM	CCOC(=O)N1CCC(CN2CC(c3cc(-c4ccc(F)cc4C(=O)N4CCOC[C@H]4C)c4c(F)nc(C)n4c3)C2)CC1 [Example 270]	–
44 nM	Cc1nc(F)c2c(-c3ccc(F)cc3C(=O)N3CCOC[C@H]3C)cc(C3CN(CC4CCN(S(C)(=O)=O)CC4)C3)cn12 [Example 273]	–
–	CCN(C(=O)c1cc(F)ccc1-c1cc(C2CN(C(=O)[C@H]3NC[C@@H]4CCC[C@@H]43)C2)cn2c(C)nc(F)c12)C(C)C [Example 274]	19.5 nM
15 nM	Cc1nc(F)c2c(-c3ccc(F)cc3C(=O)N3CCOC[C@H]3C)cc(C3CN(C[C@H]4CC[C@@H](c5cnn(C)c5)CC4)C3)cn12 [Example 276-1, (3R)-4-{5-fluoro-2-[1-fluoro-3-methyl-6-(1-{[(1s,4s)-4-(1-methyl-1H-pyrazol-4-yl)cyclohexyl]methyl}azacyclobutan-3-yl)imidazo[1,5-a]pyridin-8yl]benzoyl}-3-methylmorpholine]	–
7 nM	Cc1nc(F)c2c(-c3ccc(F)cc3C(=O)N3CCOC[C@H]3C)cc(C3CN(C[C@H]4CC[C@H](c5cnn(C)c5)CC4)C3)cn12 [Example 276-2, (3R)-4-{5-fluoro-2-[1-fluoro-3-methyl-6-(1-{[(1r,4r)-4-(1-methyl-1H-pyrazol-4-yl)cyclohexyl]methyl}azacyclobutan-3-yl)imidazo[1,5-a]pyridin-8yl]benzoyl}-3-methylmorpholine]	–
19.5 nM	CCC(C1CCN(C(C)=O)CC1)N1CC(c2cc(-c3ccc(F)cc3C(=O)N3CCOC[C@H]3C)c3c(F)nc(C)n3c2)C1 (stereo partly drawn) [Example 280, 1-(4-{1-[3-(1-fluoro-8-{4-fluoro-2-[(3R)-3-methylmorpholin-4-carbonyl]phenyl}-3-methylimidazo[1,5-a]pyridin-6-yl)azacyclobutan-1-yl]propyl}piperidin-1-yl)ethan-1-one]	–
160 nM	CC[C@H](C1CCN(C(C)=O)CC1)N1CC(c2cc(-c3ccc(F)cc3C(=O)N3CCOC[C@H]3C)c3c(F)nc(C)n3c2)C1 [Example 280-2, 1-{4-[(1R)-1-[3-(1-fluoro-8-{4-fluoro-2-[(3R)-3-methylmorpholin-4-carbonyl]phenyl}-3-methylimidazo[1,5-a]pyridin-6-yl)azacyclobutan-1-yl]propyl]piperidin-1-yl}ethan-1-one]	–
9 nM	CCN(C(=O)c1cc(F)ccc1-c1cc(C2CN([C@@H](C)C3CCN(C(C)=O)CC3)C2)cn2c(C)ncc12)C(C)C [Example 281-1]	–
79 nM	CCN(C(=O)c1cc(F)ccc1-c1cc(C2CN([C@H](C)C3CCN(C(C)=O)CC3)C2)cn2c(C)ncc12)C(C)C [Example 281-2]	–
7 nM	CCN(C(=O)c1cc(F)ccc1-c1cc(C2CN(C(C)C3CCN(C(C)=O)CC3)C2)cn2c(C)ncc12)C(C)C (stereo not shown) [Example 281]	–
9 nM	CCNC(=O)N1CCC([C@@H](C)N2CC(c3cc(-c4ccc(F)cc4C(=O)N(CC)C(C)C)c4c(F)nc(C)n4c3)C2)CC1 [Example 282-1, N-ethyl-4-[(1R)-1-[3-(8-{2-[ethyl(isopropyl)aminoformyl]-4-fluorophenyl}-1-fluoro-3-methylimidazo[1,5-a]pyridin-6-yl)azacyclobutan-1-yl]ethyl]piperidin-1-formamide]	–
1 nM	CCNC(=O)N1CCC([C@H](C)N2CC(c3cc(-c4ccc(F)cc4C(=O)N(CC)C(C)C)c4c(F)nc(C)n4c3)C2)CC1 [Example 282-2, N-ethyl-4-[(1S)-1-[3-(8-{2-[ethyl(isopropyl)aminoformyl]-4-fluorophenyl}-1-fluoro-3-methylimidazo[1,5-a]pyridin-6-yl)azacyclobutan-1-yl]ethyl]piperidin-1-formamide]	–
20 nM	CCN(C(=O)c1cc(F)ccc1-c1cc(C2CN([C@H](C)C3CCN(C(=O)NC)CC3)C2)cn2c(C)nc(F)c12)C(C)C [Example 283-1]	–
2 nM	CCN(C(=O)c1cc(F)ccc1-c1cc(C2CN([C@@H](C)C3CCN(C(=O)NC)CC3)C2)cn2c(C)nc(F)c12)C(C)C [Example 283-2]	–
39 nM	CCN(C(=O)c1cc(F)ccc1-c1cc(C2CN([C@H](C)C3CCN(C(=O)CO)CC3)C2)cn2c(C)nc(F)c12)C(C)C [Example 284-1]	–
11 nM	CCN(C(=O)c1cc(F)ccc1-c1cc(C2CN([C@H](C)C3CCN(C(C)=O)CC3)C2)cn2c(C)nc(F)c12)C(C)C [Example 288-1]	–
2 nM	CCN(C(=O)c1cc(F)ccc1-c1cc(C2CN([C@@H](C)C3CCN(C(C)=O)CC3)C2)cn2c(C)nc(F)c12)C(C)C [Example 288-2]	–
